Test results taken from patent publication US8759372B2, “N-(5S,6S,9R)-amino-6-(2,3-difluorophenyl)-6,7,8,9-tetrahydro-5H-ctclohepta[b]Pyridin-9-yl-4-(2-oxo-2,3-dihydro-1H-imidazo[4,5-b]pyridin-1-carboxylate salt” (Bristol-Myers Squibb Company, priority 2012, dated 2014).
Structures can show the parent of a compound that is named as a salt. Where two headings read alike, the source gives them in different places.

Experiments:
[1] = Dissolution rate in aqueous medium; assay type: physicochemical; conditions: pH 1 and 5 versus pH 7
Source text: The dissolution rate of Compound (I) is dependent on the pH of the aqueous medium. […] The normal pH of the stomach is 1.2 to 1.8 according to […], Clinical Analysis, Chapter 32, in Remington: The Science and Practice of Pharmacy 20th Edition, A. R. Gennaro, editor; 2000, Lippinocott Williams & Wilkins, Baltimore, Md. However, patients often take other medications that can raise the pH of the stomach, including antacids, proton pump inhibitors, and H2-receptor antagonists such as famotidine, which can lower the dissolution rate of Compound (I).

[2] = In vivo pharmacokinetic study in humans with and without famotidine pretreatment; conditions: for AUC(0-inf) / Cmax / half-life / Tmax: human, plasma; for AUC(0-inf) / Cmax / half-life / Cl/F: (%); for Tmax: read-out: Tmax Median
Protocol: An in vivo study was conducted comparing the pharmacokinetics of the free base Compound (I) in humans pretreated with 40 mg of famotidine with non-pretreated humans.
Compound (I) in human EDTA plasma was analyzed using liquid-liquid extraction with uHPLC-MS/MS detection on a Triple Quad 5500 mass spectrometer. The method utilized stable isotope labeled [^13C2, D4]-Compound (I) as the internal standard. After the addition of 50 μL of 100 ng/mL [^13C2, D4]-Compound (I) in MeOH:water (20/80) and of 50 μL 1M NH4OAc containing 4% acetic acid buffer solution to 0.100 mL of each study sample, quality control (QC) sample, and calibration standard, the samples were extracted with 600 μL methyl tert-butyl ether (MTBE) by shaking for 15 min. A 450 μL portion of the organic layer was removed and evaporated to dryness. The residue was reconstituted in 200 μL of the reconstitution solution (30% acetonitrile in 10 mM NH4OAc with 0.01% acetic acid). All liquid transfer steps were performed using a Perkin Elmer JANUS Mini® liquid handler except for the addition of the internal standard solution. A 10 μL aliquot of the extracted sample was injected to uHPLC-MS/MS system. The uHPLC was performed on a LEAP 4X Ultra uHPLC system with LEAP HTC PAL autosampler. Mobile phase A contained 10 mM NH4OAc and 0.01% acetic acid in ACN/water (10:90), and mobile phase B contained 10 mM NH4OAc and 0.01% acetic acid in ACN/water (90:10). Chromatographic separation was achieved on an Acquity® uHPLC BEH C18 column (1.7 μm, 2.1×50 mm) with an isocratic elution from 0-1.5 min consisted of 28% Mobile Phase B for analysis of Compound (I), then with a gradient elution consisted of a linear increase from 28% B to 100% B in 0.1 min, then maintaining it at 100% B for 1.1 min for washing out the column. The gradient was then returned to 28% B within 0.1 min, and maintained at 28% for 0.9 min with a total run time of 3.7 min. The flow rate was 0.6 mL/min and column temperature was maintained at 60° C. condition. Detection was accomplished using an AB Sciex Triple Quad 5500 mass spectrometer in positive ESI with turbo ion spray ionization and using multiple reaction monitoring (MRM) mode. The MRM transitions were m/z 535→256 for Compound (I) and m/z 541→256 for [^13C2, D4]-Compound (I). Data acquisition and quantiation were performed using AB Sciex Analyst® 1.5.1 software. The standard curve, which ranged from 0.500-500 ng/ml for Compound (I), was fitted to a 1/x2 weighted linear regression model. During sample analysis, four levels of analytical quality control (QC) samples representing low, geometric-mean, medium, and high concentrations of Compound (I) prepared in human EDTA plasma were analyzed in 4 replicates at each concentration level for each analytical run. The results from these QC samples were used to accept or reject the analytical runs containing study samples based on the acceptance criteria established a priori for the analysis of Compound (I) in human EDTA plasma.

[3] = Salt screen and crystalline salt characterization; assay type: physicochemical; conditions: for hygroscopicity: ambient temperature and relative humidity conditions, Hemisulfate Salt
Protocol: High throughput crystallization was employed to screen for the formation of crystalline salts of Compound (I). The screening examined acid type, acid level (equivalents), and/or type of crystallization solvent. Each plate contained 96 well plates (8 rows of 12 columns per plate).
A solution was prepared by dissolving 400 mg of Compound (I) in a mixture of 36 ml THF and 4 mL H2O. The solution ([…]) was transferred to 24 vials. To each vial was added 0.25 M EtOH stock solutions of the following acids:
The content of each vial was transferred to 12 crystallization wells and evaporated to dryness. Upon evaporation, each well was charged with 100 μl of solvent using a robotic liquid handler. The following crystallization solvents were tested: methyl isobutyl ketone (MIBK), ethyl acetate, toluene, THF, acetonitrile, acetone, isopropanol, ethanol, methanol, 1,2-dichloroethylene, isopropanol/water (50:50), and water. Next, the plates were sealed with Teflon septa and subjected to temperature cycling. The plates were maintained at 50° C. for 10 hours and then allowed to cool to room temperature over a period of 14 hours. After the heating/cooling cycle, the contents of the wells were characterized by birefringent imaging. Perceived crystalline hits were further characterized by PXRD analysis.

[4] = Moisture sorption isotherm; assay type: physicochemical; conditions: for moisture sorption weight gain: 25° C.
Protocol: Example 1 has moisture sorption weight gains of 0.8 weight % and 2.8 weight % between 25% and 75% relative humidity and 5% and 95% relative humidity, respectively.
Moisture sorption isotherms were collected in a VTI SGA-100 Symmetric Vapor Analyzer using approximately 10 mg of sample. The sample was dried at 60° C. until the loss rate of 0.0005 wt %/min was obtained for 10 minutes. The sample was tested at 25° C. and 3 or 4, 5, 15, 25, 35, 45, 50, 65, 75, 85, and 95% RH. Equilibration at each RH was reached when the rate of 0.0003 wt %/min for 35 minutes was achieved or a maximum of 600 minutes.

[5] = Water activity studies between crystalline forms; assay type: physicochemical
Protocol: Form P22C: prepared by heating Form H1.5-1 at 60° C. for 2 hours or at 75° C. for 5 minutes.
Form P33: Form H1.5-1 converted to Form P33 between 50° C. and 75° C. in variable temperature PXRD experiment. Also observed after Form H1.5-1 was heated to 105° C. for 5 minutes, or prepared by slurring dry powder Form H1.5-1 in dry EtOH or IPAc. […] Form P35: Prepared from slurry of Form H1.5-1 in dry MeOH under molecular sieves (7% RH). Converted to Form P33 when dried at 60° C. Stability in Water Slurry

[6] = Solid state stability study; assay type: physicochemical
Protocol: The solid state stability of Example 1 was tested by exposing samples to various temperature and relative humidity conditions for periods of 1, 2, and 4 weeks.

[7] = Stability in water slurry; assay type: physicochemical; conditions: room temperature, two days
Protocol: An aqueous slurry of Example 1 was prepared and stored at room temperature.

[8] = humans, 150 mg Compound (I) oral with 40 mg Famotidine pretreatment
[9] = humans, 150 mg Compound (I) oral, no pretreatment
[10] = humans, 150 mg with 40 mg Famotidine relative to no pretreatment
[11] = 25 RH/60° C. (first line, r9), 2 weeks
[12] = 25 RH/60° C. (first line, r9), 4 weeks
[13] = 25 RH/60° C. (first of three lines printed alike, r9), 1 week
[14] = 25 RH/60° C. (second line, r11), 1 week
[15] = 25 RH/60° C. (second line, r11), 2 weeks
[16] = 25 RH/60° C. (second line, r11), 4 weeks
[17] = 25 RH/60° C. (third line, r13), 1 week
[18] = 25 RH/60° C. (third line, r13), 2 weeks
[19] = 25 RH/60° C. (third line, r13), 4 weeks
[20] = HIL/UV (high-intensity light/ultraviolet), 1 week
[21] = HIL/UV (high-intensity light/ultraviolet), 2 weeks

## N[C@@H]1c2cccnc2[C@H](OC(=O)N2CCC(n3c(=O)[nH]c4ncccc43)CC2)CC[C@H]1c1cccc(F)c1F [Compound (I), (5S,6S,9R)-5-amino-6-(2,3-difluorophenyl)-6,7,8,9-tetrahydro-5H-cyclohepta[b]pyridin-9-yl-4-(2-oxo-2,3-dihydro-1H-imidazo[4,5-b]pyridin-1-yl)piperidine-1-carboxylate]
[1]
  dissolution rate: higher dissolution rate at pH values of 1 and 5 than at a pH value of 7
[2]; [8]
  AUC(0-inf): 3060 ng·h/mL
  Cmax: 259 ng/mL
  half-life: 12.6 h
  Tmax: 3 h
  Cl/F: 49 (28%) L/hr
[2]; [9]
  AUC(0-inf): 7200 ng·h/mL
  Cmax: 991 ng/mL
  half-life: 12 h
  Tmax: 2.5 h
  Cl/F: 20.84 (75%) L/hr
[2]; humans pretreated with 40 mg of famotidine compared to non-pretreated humans
  change in AUC and Cmax: significant reduction
[2]; [10]
  F (AUCinf): 42.5% (96%)
  F (Cmax): 26.2% (130%)

## N[C@@H]1c2cccnc2[C@H](OC(=O)N2CCC(n3c(=O)[nH]c4ncccc43)CC2)CC[C@H]1c1cccc(F)c1F [Example 1, (5S,6S,9R)-5-Amino-6-(2,3-difluorophenyl)-6,7,8,9-tetrahydro-5H-cyclohepta[b]pyridin-9-yl-4-(2-oxo-2,3-dihydro-1H-imidazo[4,5-b]pyridin-1-yl) piperidine-1-carboxylate, Hemisulfate Salt]
[3]; listed as Sulfuric acid
  hygroscopicity: low/non-
[3]; listed as hemisulfate salt of Compound (I)
  hygroscopicity: low hygroscopicity
[3]; crystalline salt
  chemical stability: chemically stable
  physical stability: physically stable
[4]; between 5% and 95% relative humidity
  moisture sorption weight gain: 2.8 weight %
[4]; between 25% and 75% relative humidity
  moisture sorption weight gain: 0.8 weight %
[4]; moisture sorption isotherm at 25° C.
  hygroscopicity: low or non-hygroscopic
[5]; Form H1.5-1 versus Form P22C
  relative stability of crystalline forms: more stable at >23% relative humidity
[5]; Form H1.5-1 versus Form P33
  relative stability of crystalline forms: more stable at >23% relative humidity
[6]; [11]
  % potency: 96.8%
  % total impurities: 0.27%
[6]; [12]
  % potency: 96.9%
  % total impurities: 0.27%
[6]; [13]
  % potency: 94.4%
  % total impurities: 0.27%
[6]; [14]
  % potency: 95.1%
  % total impurities: 0.27%
[6]; [15]
  % potency: 98.5%
  % total impurities: 0.27%
[6]; [16]
  % potency: 97.0%
  % total impurities: 0.27%
[6]; [17]
  % potency: 101.6%
  % total impurities: 0.28%
[6]; [18]
  % potency: 102.6%
  % total impurities: 0.27%
[6]; [19]
  % potency: 110.0%
  % total impurities: 0.27%
[6]; [20]
  % potency: 100.7%
  % total impurities: 0.27%
[6]; [21]
  % potency: 96.9%
  % total impurities: 0.27%
[6]; Initial
  % potency: 98.5%
  % total impurities: 0.27%
[6]; Refrigerated, 1 week
  % potency: 98.0%
  % total impurities: 0.29%
[6]; Refrigerated, 2 weeks
  % potency: 96.5%
  % total impurities: 0.27%
[6]; Refrigerated, 4 weeks
  % potency: 105.7%
  % total impurities: 0.27%
[6]; tested temperature and relative humidity conditions, four weeks of storage
  solid state stability: stable under the tested storage conditions
[7]
  chemical degradation in aqueous slurry: no significant chemical degradation
  stability of crystalline form in aqueous slurry (PXRD): stable in the aqueous slurry
